Converted amounts (≈) assume the structure as drawn. The source made the active and inactive calls. The calls are words filed in the database; no cut-off is given here.
Columns and labels:
Assay type in all cases: functional
Pseudomonas aeruginosa [1] = experiment: Bactericidal activity against Pseudomonas aeruginosa MTCC 2453 assessed as reduction in bacterial survival incubated for 24 hrs followed by transfer of microbial suspension to agar plates and measured at 24 hrs post transfer by agar well diffusion method
Bacillus subtilis [2] = experiment: Bactericidal activity against Bacillus subtilis MTCC 121 assessed as reduction in bacterial survival incubated for 24 hrs followed by transfer of microbial suspension to agar plates and measured at 24 hrs post transfer by agar well diffusion method
Micrococcus luteus [3] = experiment: Bactericidal activity against Micrococcus luteus MTCC 2470 assessed as reduction in bacterial survival incubated for 24 hrs followed by transfer of microbial suspension to agar plates and measured at 24 hrs post transfer by agar well diffusion method
Micrococcus luteus [4] = experiment: Antibacterial activity against Micrococcus luteus MTCC 2470 assessed as reduction in bacterial growth incubated for 24 hrs by agar well diffusion method
Raoultella planticola [5] = experiment: Antibacterial activity against Klebsiella planticola MTCC 530 assessed as reduction in bacterial growth incubated for 24 hrs by agar well diffusion method
Escherichia coli [6] = experiment: Bactericidal activity against Escherichia coli MTCC 739 assessed as reduction in bacterial survival incubated for 24 hrs followed by transfer of microbial suspension to agar plates and measured at 24 hrs post transfer by agar well diffusion method
Candida albicans [7] = experiment: Antifungal activity against Candida albicans MTCC 3017 assessed as reduction in fungal growth incubated for 24 hrs by agar well diffusion method; settings: MTCC 3017, 24 h
Staphylococcus aureus [8] = experiment: Bactericidal activity against Staphylococcus aureus MTCC 96 assessed as reduction in bacterial survival incubated for 24 hrs followed by transfer of microbial suspension to agar plates and measured at 24 hrs post transfer by agar well diffusion method
Raoultella planticola [9] = experiment: Bactericidal activity against Klebsiella planticola MTCC 530 assessed as reduction in bacterial survival incubated for 24 hrs followed by transfer of microbial suspension to agar plates and measured at 24 hrs post transfer by agar well diffusion method
Bacillus subtilis [10] = experiment: Antibacterial activity against Bacillus subtilis MTCC 121 assessed as reduction in bacterial growth incubated for 24 hrs by agar well diffusion method
Pseudomonas aeruginosa [11] = experiment: Antibacterial activity against Pseudomonas aeruginosa MTCC 2453 assessed as reduction in bacterial growth incubated for 24 hrs by agar well diffusion method
Staphylococcus aureus [12] = experiment: Antibacterial activity against Staphylococcus aureus MTCC 96 assessed as reduction in bacterial growth incubated for 24 hrs by agar well diffusion method
Escherichia coli [13] = experiment: Antibacterial activity against Escherichia coli MTCC 739 assessed as reduction in bacterial growth incubated for 24 hrs by agar well diffusion method
Staphylococcus aureus [14] = experiment: Bactericidal activity against Staphylococcus aureus MLS-16 MTCC 2940 assessed as reduction in bacterial survival incubated for 24 hrs followed by transfer of microbial suspension to agar plates and measured at 24 hrs post transfer by agar well diffusion method
Candida albicans [15] = experiment: Fungicidal activity against Candida albicans MTCC 3017 assessed as reduction in fungal survival incubated for 24 hrs followed by transfer of microbial suspension to agar plates and measured at 24 hrs post transfer by agar well diffusion method; settings: MTCC 3017, 24 h
Staphylococcus aureus [16] = experiment: Antibacterial activity against Staphylococcus aureus MLS-16 MTCC 2940 assessed as reduction in bacterial growth incubated for 24 hrs by agar well diffusion method

| Compound | MIC (Micrococcus luteus [4]; MTCC 2470, 24 h) [µg/mL] | MIC (Candida albicans [7]) [µg/mL] | MIC (Bacillus subtilis [10]; MTCC 121, 24 h) [µg/mL] | MIC (Pseudomonas aeruginosa [11]; MTCC 2453, 24 h) [µg/mL] | MIC (Staphylococcus aureus [12]; MTCC 96, 24 h) [µg/mL] | MIC (Escherichia coli [13]; MTCC 739, 24 h) [µg/mL] | MIC (Staphylococcus aureus [16]; MLS-16 MTCC 2940, 24 h) [µg/mL] | MBC (Pseudomonas aeruginosa [1]; MTCC 2453, 24 h) [µg/mL] | MBC (Bacillus subtilis [2]; MTCC 121, 24 h) [µg/mL] | MBC (Micrococcus luteus [3]; MTCC 2470, 24 h) [µg/mL] | MIC (Raoultella planticola [5]; MTCC 530, 24 h) [µg/mL] | MBC (Escherichia coli [6]; MTCC 739, 24 h) [µg/mL] | MBC (Staphylococcus aureus [8]; MTCC 96, 24 h) [µg/mL] | MBC (Raoultella planticola [9]; MTCC 530, 24 h) [µg/mL] | MBC (Staphylococcus aureus [14]; MLS-16 MTCC 2940, 24 h) [µg/mL] | MFC (Candida albicans [15]) [µg/mL] | also measured |
| --- | --- | --- | --- | --- | --- | --- | --- | --- | --- | --- | --- | --- | --- | --- | --- | --- | --- |
| COc1cc(-n2cc(C(=O)c3c(-c4ccc(Cl)cc4)nc4sccn34)nn2)cc(OC)c1OC | 15.6 (≈ 31.5 µM) | 15.6 (≈ 31.5 µM) | 3.9 (≈ 7.86 µM) | > 125 | 7.8 (≈ 15.7 µM) | > 125 | 7.8 (≈ 15.7 µM) | > 125 | 7.8 (≈ 15.7 µM) | 31.2 (≈ 62.9 µM) | > 125 | > 125 | 15.6 (≈ 31.5 µM) | > 125 | 15.6 (≈ 31.5 µM) | 31.2 (≈ 62.9 µM) |  |
| Clc1ccc(COC(Cn2ccnc2)c2ccc(Cl)cc2Cl)c(Cl)c1 (centres undefined) [MICONAZOLE] |  | 3.9 (≈ 9.37 µM) |  |  |  |  |  |  |  |  |  |  |  |  |  | 3.9 (≈ 9.37 µM) | MBC (Pseudomonas aeruginosa [1]): inactive; MBC (Bacillus subtilis [2]): inactive; MBC (Micrococcus luteus [3]): inactive; MIC (Micrococcus luteus [4]): inactive; MIC (Raoultella planticola [5]): inactive; MBC (Escherichia coli [6]): inactive; MBC (Staphylococcus aureus [8]): inactive; MBC (Raoultella planticola [9]): inactive; MIC (Bacillus subtilis [10]): inactive; MIC (Pseudomonas aeruginosa [11]): inactive; MIC (Staphylococcus aureus [12]): inactive; MIC (Escherichia coli [13]): inactive; MBC (Staphylococcus aureus [14]): inactive; MIC (Staphylococcus aureus [16]): inactive |
| O=C(c1cn(-c2ccc(C(F)(F)F)cc2)nn1)c1c(-c2ccccc2)nc2sccn12 | 3.9 (≈ 8.88 µM) | 15.6 (≈ 35.5 µM) | 3.9 (≈ 8.88 µM) | > 125 | 3.9 (≈ 8.88 µM) | > 125 | 7.8 (≈ 17.8 µM) | > 125 | 7.8 (≈ 17.8 µM) | 7.8 (≈ 17.8 µM) | > 125 | > 125 | 7.8 (≈ 17.8 µM) | > 125 | 15.6 (≈ 35.5 µM) | 31.2 (≈ 71 µM) |  |
| COc1ccc(-c2nc3sccn3c2C(=O)c2cn(-c3ccc(F)cc3Br)nn2)cc1 | 3.9 (≈ 7.83 µM) | 7.8 (≈ 15.7 µM) | 7.8 (≈ 15.7 µM) | > 125 | 3.9 (≈ 7.83 µM) | > 125 | 7.8 (≈ 15.7 µM) | > 125 | 15.6 (≈ 31.3 µM) | 7.8 (≈ 15.7 µM) | 15.6 (≈ 31.3 µM) | > 125 | 7.8 (≈ 15.7 µM) | 15.6 (≈ 31.3 µM) | 15.6 (≈ 31.3 µM) | 15.6 (≈ 31.3 µM) |  |

Further lines, with some results ahead:

| MIC (Micrococcus luteus [4]; MTCC 2470, 24 h) [µg/mL] | MIC (Candida albicans [7]) [µg/mL] | MIC (Bacillus subtilis [10]; MTCC 121, 24 h) [µg/mL] | MIC (Pseudomonas aeruginosa [11]; MTCC 2453, 24 h) [µg/mL] | MIC (Staphylococcus aureus [12]; MTCC 96, 24 h) [µg/mL] | MIC (Escherichia coli [13]; MTCC 739, 24 h) [µg/mL] | MIC (Staphylococcus aureus [16]; MLS-16 MTCC 2940, 24 h) [µg/mL] | Compound | MBC (Pseudomonas aeruginosa [1]; MTCC 2453, 24 h) [µg/mL] | MBC (Bacillus subtilis [2]; MTCC 121, 24 h) [µg/mL] | MBC (Micrococcus luteus [3]; MTCC 2470, 24 h) [µg/mL] | MIC (Raoultella planticola [5]; MTCC 530, 24 h) [µg/mL] | MBC (Escherichia coli [6]; MTCC 739, 24 h) [µg/mL] | MBC (Staphylococcus aureus [8]; MTCC 96, 24 h) [µg/mL] | MBC (Raoultella planticola [9]; MTCC 530, 24 h) [µg/mL] | MBC (Staphylococcus aureus [14]; MLS-16 MTCC 2940, 24 h) [µg/mL] | MFC (Candida albicans [15]) [µg/mL] | also measured |
| --- | --- | --- | --- | --- | --- | --- | --- | --- | --- | --- | --- | --- | --- | --- | --- | --- | --- |
| 3.9 (≈ 8.95 µM) | 15.6 (≈ 35.8 µM) | 3.9 (≈ 8.95 µM) | > 125 | 3.9 (≈ 8.95 µM) | > 125 | 7.8 (≈ 17.9 µM) | COc1ccc(-c2nc3sccn3c2C(=O)c2cn(-c3ccc(Cl)cc3)nn2)cc1 | > 125 | 7.8 (≈ 17.9 µM) | 7.8 (≈ 17.9 µM) | > 125 | > 125 | 7.8 (≈ 17.9 µM) | > 125 | 15.6 (≈ 35.8 µM) | 31.2 (≈ 71.6 µM) |  |
| 7.8 (≈ 16.2 µM) | 7.8 (≈ 16.2 µM) | 7.8 (≈ 16.2 µM) | > 125 | 3.9 (≈ 8.12 µM) | > 125 | 7.8 (≈ 16.2 µM) | COc1ccc(-c2nc3sccn3c2C(=O)c2cn(-c3ccc(Br)cc3)nn2)cc1 | > 125 | 15.6 (≈ 32.5 µM) | 15.6 (≈ 32.5 µM) | 15.6 (≈ 32.5 µM) | > 125 | 7.8 (≈ 16.2 µM) | 31.2 (≈ 65 µM) | 15.6 (≈ 32.5 µM) | 15.6 (≈ 32.5 µM) |  |
| 3.9 (≈ 9.2 µM) | 15.6 (≈ 36.8 µM) | 3.9 (≈ 9.2 µM) | > 125 | 3.9 (≈ 9.2 µM) | > 125 | 7.8 (≈ 18.4 µM) | O=C(c1cn(-c2ccc(F)cc2)nn1)c1c(-c2ccc(Cl)cc2)nc2sccn12 | > 125 | 7.8 (≈ 18.4 µM) | 7.8 (≈ 18.4 µM) | 7.8 (≈ 18.4 µM) | > 125 | 7.8 (≈ 18.4 µM) | 15.6 (≈ 36.8 µM) | 15.6 (≈ 36.8 µM) | > 125 |  |
| > 125 | 15.6 (≈ 40.1 µM) | 7.8 (≈ 20 µM) | > 125 | > 125 | > 125 | > 125 | O=C(c1cn(-c2ccc(F)cc2)nn1)c1c(-c2ccccc2)nc2sccn12 | > 125 | 15.6 (≈ 40.1 µM) | > 125 | > 125 | > 125 | > 125 | > 125 | > 125 | 31.2 (≈ 80.1 µM) |  |
| 3.9 (≈ 9.3 µM) | 15.6 (≈ 37.2 µM) | 3.9 (≈ 9.3 µM) | > 125 | 3.9 (≈ 9.3 µM) | > 125 | 7.8 (≈ 18.6 µM) | COc1ccc(-c2nc3sccn3c2C(=O)c2cn(-c3ccc(F)cc3)nn2)cc1 | > 125 | 7.8 (≈ 18.6 µM) | 7.8 (≈ 18.6 µM) | > 125 | > 125 | 7.8 (≈ 18.6 µM) | > 125 | 15.6 (≈ 37.2 µM) | 31.2 (≈ 74.4 µM) |  |

Reference: ChEMBL document CHEMBL4396937, “Synthesis of new triazole fused imidazo[2,1-b]thiazole hybrids with emphasis on Staphylococcus aureus virulence factors” (Bioorg Med Chem Lett, 2019)
